Test systems include 786-0 renal; CAKI-1 renal; HCT-15 colon; HT29 colon; K-562 leukemia; NCI-H23 lung; RXF 393 renal; SN12C renal; SW-620 colon; TK-10 renal.
Common to all, as to assay: NCI-60 cell line screen, 48 h

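Five concentrations, 48 hours, 96-well plates. GI50 marks 50% less growth. TGI: total growth inhibition.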

For the compound `CCOC(=O)C(=O)/C(=C/N1C(=O)CC(=O)NC1=S)C(=O)OCC`, the TGI in the test with 786-0 renal, with CAKI-1 renal, with HCT-15 colon, with HT29 colon, in the test on K-562 leukemia and with NCI-H23 lung was above 100 µM each time. The TGI in the test on RXF 393 renal, in the test with SN12C renal, in the test on SW-620 colon and with TK-10 renal was above 100 µM throughout. Also, in the test with TK-10 renal, the GI50 was above 100 µM.

Regarding `Fc1ccc(-c2sc(-c3cccs3)cc2Cc2cccs2)cc1`, the TGI in the test on 786-0 renal, in the test with CAKI-1 renal, with HCT-15 colon, in the test with HT29 colon, in the test with K-562 leukemia and with NCI-H23 lung was above 100 µM each time. The TGI with RXF 393 renal, in the test on SN12C renal, in the test with SW-620 colon and in the test with TK-10 renal was above 100 µM in each case.

For the compound `CCOC(=O)c1c2c(c(O)c3ccccc3c(O)n(Cc3ccccc3)c1C)C(=O)C=CC2=O`, the TGI in the test with 786-0 renal, with CAKI-1 renal, with HCT-15 colon, in the test with HT29 colon, in the test with K-562 leukemia and in the test with NCI-H23 lung was above 100 µM each time. Further, the TGI was 75.9 µM with RXF 393 renal, above 100 µM in the test on SN12C renal, above 100 µM with SW-620 colon and above 100 µM with TK-10 renal.

As for `CC(=O)OC1COC(N2C(=O)C(=O)c3cc(Br)ccc32)C(OC(C)=O)C1OC(C)=O` (stereo unspecified), the TGI with 786-0 renal, in the test on CAKI-1 renal, with HCT-15 colon, in the test with HT29 colon, with K-562 leukemia and with NCI-H23 lung was above 100 µM in each case. Also, the TGI in the test on RXF 393 renal, in the test with SN12C renal, in the test with SW-620 colon and in the test with TK-10 renal was above 100 µM throughout.

Values taken from PubChem BioAssay (NCI).
